Results: ChEMBL document CHEMBL3792274, “Neuroprotective oleanane triterpenes from the roots of Bupleurum chinense” (Bioorg Med Chem Lett, 2016)

Columns and labels:
[1] = system: SH-SY5Y; test: Neuroprotective activity against H2O2-induced neuronal cell death in human SH-SY5Y cells assessed as cell viability at 50 uM pretreated for 12 hrs followed by H2O2 addition measured after 3 hrs by MTT assay relative to control; format: functional; details: read-out: Activity
[2] = system: SH-SY5Y; test: Neuroprotective activity against H2O2-induced neuronal cell death in human SH-SY5Y cells assessed as cell viability at 25 uM pretreated for 12 hrs followed by H2O2 addition measured after 3 hrs by MTT assay relative to control; format: functional; details: read-out: Activity
[3] = system: A549; test: Cytotoxicity against human A549 cells after 48 hrs by MTT assay; format: cell-based; details: A549, 48 h
[4] = system: HepG2; test: Cytotoxicity against human HepG2 cells after 48 hrs by MTT assay; format: cell-based; details: HepG2, 48 h
[5] = Cytotoxicity against human Hep3B cells after 48 hrs by MTT assay; format: cell-based, Hep 3B2
[6] = system: Bcap37; test: Cytotoxicity against human Bcap37 cells after 48 hrs by MTT assay; format: cell-based; details: Bcap37, 48 h
[7] = system: MCF7; test: Cytotoxicity against human MCF7 cells after 48 hrs by MTT assay; format: cell-based; details: MCF7, 48 h
[8] = system: SH-SY5Y; test: Neuroprotective activity against H2O2-induced neuronal cell death in human SH-SY5Y cells assessed as cell viability at 100 uM pretreated for 12 hrs followed by H2O2 addition measured after 3 hrs by MTT assay relative to control; format: functional; details: read-out: Activity

SMILES | viability at 50 µM [1] | viability at 25 µM [2] | IC50 [3] | IC50 [4] | IC50 [5] | IC50 [6] | IC50 [7] | viability at 100 µM [8]
CC1(C)CC[C@]23CO[C@@]4(C=C[C@@H]5[C@@]6(C)CC[C@H](O)[C@@](C)(CO)[C@@H]6CC[C@@]5(C)[C@]4(C)C[C@@H]2O)[C@@H]3C1 | 74.2% | 66.7% | > 80 µM | 75.7 µM | > 80 µM | > 80 µM | > 80 µM | 43.5%
CC1(C)CC[C@]23CO[C@@]4(C=C[C@@H]5[C@@]6(C)CC[C@H](O)[C@@](C)(CO)[C@@H]6CC[C@@]5(C)[C@]4(C)C[C@H]2O)[C@@H]3C1 | 62.4% | 70% | > 80 µM | 63.4 µM | > 80 µM | > 80 µM | > 80 µM | 62.6%
CC1(C)CC[C@@]2(CO)C(=C3C=C[C@@H]4[C@@]5(C)CC[C@H](O)[C@@](C)(CO)[C@@H]5CC[C@@]4(C)[C@]3(C)C[C@@H]2O)C1 | 79.9% | 81.4% | > 80 µM | > 80 µM | > 80 µM | > 80 µM | > 80 µM | 78%
CO[C@@H]1C=C2[C@@H]3CC(C)(C)CC[C@]3(CO)[C@@H](O)C[C@@]2(C)[C@]2(C)CC[C@H]3C(C)(C)[C@@H](O[C@@H]4O[C@H](C)[C@H](O)[C@H](O[C@@H]5O[C@H](CO)[C@@H](O)[C@H](O)[C@H]5O)[C@H]4O)CC[C@]3(C)[C@@H]12 | 7.15% | 64.9% | > 80 µM | 43.2 µM | > 80 µM | > 80 µM | > 80 µM | 6.02%
CC1(C)CC[C@@]2(CO)C(=C3C=C[C@@H]4[C@@]5(C)CC[C@H](O)[C@@](C)(CO)[C@@H]5CC[C@@]4(C)[C@]3(C)C[C@H]2O)C1 | 82.5% | 83.4% | > 80 µM | > 80 µM | > 80 µM | > 80 µM | > 80 µM | 79.3%
C[C@H]1O[C@@H](O[C@H]2CC[C@@]3(C)[C@@H](CC[C@]4(C)[C@@H]3[C@H](O)C=C3[C@@H]5CC(C)(C)CC[C@]5(CO)[C@@H](O)C[C@]34C)[C@]2(C)CO)[C@H](O)[C@@H](O[C@@H]2O[C@H](CO)[C@@H](O)[C@H](O)[C@H]2O)[C@H]1O | 54.4% | 57.5% | > 80 µM | > 80 µM | > 80 µM | > 80 µM | > 80 µM | 55.6%
C[C@H]1O[C@@H](O[C@H]2CC[C@@]3(C)[C@@H](CC[C@]4(C)[C@@H]3C=CC3=C5CC(C)(C)CC[C@]5(CO)[C@H](O)C[C@]34C)[C@]2(C)CO)[C@H](O)[C@@H](O[C@@H]2O[C@H](CO)[C@@H](O)[C@H](O)[C@H]2O)[C@H]1O | 59.5% | 66.9% | > 80 µM | 35.1 µM | > 80 µM | > 80 µM | > 80 µM | 33.3%
CC(=O)OC[C@H]1O[C@@H](O[C@H]2[C@@H](O)[C@@H](C)O[C@@H](O[C@H]3CC[C@@]4(C)[C@@H](CC[C@]5(C)[C@@H]4C=CC4=C6CC(C)(C)CC[C@]6(CO)[C@H](O)C[C@]45C)[C@]3(C)CO)[C@@H]2O)[C@H](O)[C@@H](O)[C@@H]1O | 7.24% | 14.3% | 69.3 µM | 21.8 µM | > 80 µM | > 80 µM | 46.5 µM | 7.64%
CO[C@@H]1C=C2[C@@H]3CC(C)(C)CC[C@]3(CO)[C@H](O)C[C@@]2(C)[C@]2(C)CC[C@H]3[C@](C)(CO)[C@@H](O[C@@H]4O[C@H](C)[C@H](O)[C@H](O[C@@H]5O[C@H](COC(C)=O)[C@@H](O)[C@H](O)[C@H]5O)[C@H]4O)CC[C@]3(C)[C@@H]12 | 7.12% | 11.7% |  |  |  |  |  | 7.16%
C[C@H]1O[C@@H](O[C@H]2CC[C@@]3(C)[C@@H](CC[C@]4(C)[C@@H]3[C@H](O)C=C3[C@@H]5CC(C)(C)CC[C@]5(CO)[C@@H](O)C[C@]34C)[C@]2(C)CO)[C@H](O)[C@@H](O)[C@H]1O | 11.4% | 67.6% | 58.1 µM | 19.4 µM | 39.6 µM | 20.2 µM | 29.4 µM | 6.3%
CC1(C)CC[C@]2(CO)C(=O)C[C@]3(C)C(=C2C1)C=C[C@@H]1[C@@]2(C)CC[C@H](O)[C@@](C)(CO)[C@@H]2CC[C@]13C | 80.6% | 78.2% | > 80 µM | > 80 µM | > 80 µM | > 80 µM | > 80 µM | 77.8%
CO[C@@H]1C=C2[C@@H]3CC(C)(C)C[C@H](O)[C@]3(CO)[C@@H](O)C[C@@]2(C)[C@]2(C)CC[C@@H]3[C@](C)(CCC(=O)[C@@]3(C)CO)[C@@H]12 | 70.2% | 75.6% | > 80 µM | 65.9 µM | > 80 µM | > 80 µM | > 80 µM | 67.2%
CC1(C)CC[C@@]2(CO)C(=C3C=C[C@@H]4[C@@]5(C)CCC(=O)[C@@](C)(CO)[C@@H]5CC[C@@]4(C)[C@]3(C)C[C@H]2O)C1 | 74.1% | 77.2% | > 80 µM | > 80 µM | > 80 µM | > 80 µM | > 80 µM | 75.1%
CO[C@@H]1C=C2[C@@H]3CC(C)(C)CC[C@]3(CO)[C@@H](O)C[C@@]2(C)[C@]2(C)CC[C@H]3[C@](C)(CO)[C@@H](O[C@@H]4O[C@H](C)[C@H](O)[C@H](O[C@@H]5O[C@H](CO)[C@@H](O)[C@H](O)[C@H]5O)[C@H]4O)CC[C@]3(C)[C@@H]12 | 8.25% | 63.1% | > 80 µM | 27.5 µM | > 80 µM | > 80 µM | 64.3 µM | 6.16%
CC(=O)O[C@H]1[C@H](O[C@H]2[C@@H](O)[C@@H](C)O[C@@H](O[C@H]3CC[C@@]4(C)[C@@H](CC[C@]5(C)[C@@H]4C=CC4=C6CC(C)(C)CC[C@]6(CO)[C@H](O)C[C@]45C)[C@]3(C)CO)[C@@H]2O)O[C@H](CO)[C@@H](O)[C@@H]1O | 7.28% | 9.38% | 56 µM | 18.9 µM | 23 µM | 23.5 µM | 42.2 µM | 7.36%
CO[C@H]1C=C2[C@H]3CC(C)(C)CC[C@@]3(CO)[C@H](O)C[C@]2(C)[C@@]2(C)CC[C@@H]3C(C)(C)[C@H](O[C@@H]4O[C@H](CO[C@H]5O[C@@H](CO)[C@H](O)[C@@H](O)[C@@H]5O)[C@@H](O[C@@H]5O[C@@H](C)[C@H](O)[C@@H](O)[C@H]5O)[C@H](O)[C@H]4O)CC[C@@]3(C)[C@H]12 | 50% | 58.4% | > 80 µM | > 80 µM | 75.7 µM | > 80 µM | > 80 µM | 20.2%
C[C@@H]1O[C@@H](O[C@H]2[C@H](O)[C@@H](O)[C@H](O[C@@H]3CC[C@]4(C)[C@H](CC[C@@]5(C)[C@H]4CC=C4[C@H]6CC(C)(C)CC[C@@]6(CO)[C@H](O)C[C@@]45C)C3(C)C)O[C@@H]2CO[C@H]2O[C@@H](CO)[C@H](O)[C@@H](O)[C@@H]2O)[C@H](O)[C@H](O)[C@H]1O | 53% | 51.4% | > 80 µM | > 80 µM | 37.8 µM | > 80 µM | > 80 µM | 8.66%
O=c1[nH]cc(F)c(=O)[nH]1 [FLUOROURACIL] |  |  |  | 49.7 µM | 10.5 µM | 47.1 µM | 42.8 µM | 
Cc1c(C)c2c(c(C)c1O)CCC(C)(C(=O)O)O2 (stereo not drawn) [TROLOX] | 73.7% | 67% |  |  |  |  |  | 75.2%
